Tested on: cytokine, chemokine and angiogenic factors (blood biomarkers)
Experiment: Serum blood biomarkers (cytokine, chemokine and angiogenic factors) by ELISA and multiplex kits, pre- and post-treatment with E7080
Assay type: in vivo, human
Experimental: Patients received E7080 at a dose of 24 mg oral once daily in 28 day cycles. […] 7.5 mL of blood was drawn into serum […] tube (SST) and let to clot at room temperature for at least 30 min. Within 60 minutes of sample collection, the tubes were centrifuged for 10 minutes at 20-25° C. at 1400×g. The supernatant was drawn without disturbing the pellet and the serum was mixed and divided into two sample tubes and stored frozen (−70° C.) at an upright position until further treatment for analysis. Serum samples from 58 patients were used for blood biomarker analysis. […] The association of progression free survival with or without a covariate was analyzed. The covariates used are the following PK parameters: cycle 1 day 1 Cmax (E7080 concentration 2 hr after dosing on cycle 1 day 1: MAX1); cycle 1 day 1 Ctrough (E7080 concentration before dosing on cycle1 day 8: MIN1); cycle 2 day 1 Cmax (E7080 concentration 2 hrs after dosing on cycle 2 day 1: MAX2); cycle 2 day 1 Ctrough (E7080 concentration before dosing on cycle 2 day 1: MIN2). Serum samples were tested in batch format where all timepoints from the same subject were assayed on the same day. On the day of assay, samples were removed from −80° C. and allowed to thaw and reach room temperature. The serum samples were tested using the following commercial assay kits as per the manufacturer's instructions: Human Soluble Tie-2 ELISA (R&D Systems Cat. No. DTE200), Human Angiopoietin-1 ELISA (R&D Systems Cat. No. DANG10), Human FGF23 ELISA, Human SDF-1a ELISA. Human Angiopoietin-2 ELISA (R&D Systems Cat. No. DANG20), Human Soluble Receptor Multiplex (Millipore Cat. No. HSCR-32K; sVEGF R1, sVEGF R2 and sVEGF R3 only), Human Cytokine/Chemokine Panel I Multiplex (Millipore Cat. No. MPXHCYTO-60K; IL-1α, IL-1β, IL-1ra, IL-2, IL-4, IL-5, IL-6, IL-7, IL-8, IL-10, IL-12p40, IL-12p70, IL-13, IL-15, IL-17, sCD40L, EGF, Eotaxin, FGF-2, G-CSF, GM-CSF, IFN-γ, IP-10, MCP-1, MIP-1α, MIP-1β, PDGF-AA, RANTES, TGF-α, TNF-α and VEGF only) and Human Growth Factor Multiplex (Origene TruPLEX Cat. No. AM100096; PDGF-AB, PDGF-BB, FGF4, VEGFD, FGF2, EGF, HGF, FLT3LG, ANGPT2, PGF and VEGFA).
The ELISA plates were measured using a Molecular Devices UVmax kinetic microplate reader with SoftMax Pro 5.2 software. The multiplex assays were performed using the Bio-Rad Bio-Plex system with Bio-Plex Manager 4.1 software. Final protein concentrations (pg/mL) were calculated from the standard curve for each assay. Depending on the assay, serum samples may have been diluted in assay buffer prior to testing. In these cases, protein concentrations were multiplied by the dilution factor.
From 58 patient samples, between 27 and 49 pre- and post-treatment blood samples were used for analyses.

## COc1cc2nccc(Oc3ccc(NC(=O)NC4CC4)c(Cl)c3)c2cc1C(N)=O [E7080, 4-(3-chloro-4-(cyclopropylaminocarbonyl)aminophenoxy)-7-methoxy-6-quinolinecarboxamide]
CYCLE 1 DAY 1 (pre-treatment)
  ANG2 (90) concentration (Median), PR group: 829.5 pg/mL
  ANG2 (90) concentration (Median), others (SD or PD): 1032.9 pg/mL
  Ang-2 concentration (Median), PR group: 2530.5 pg/mL
  Ang-2 concentration (Median), others (SD or PD): 3399 pg/mL
  IFN-g concentration (Median), PR group: 7.9 pg/mL
  IFN-g concentration (Median), others (SD or PD): 21.2 pg/mL
CYCLE 1 DAY 8
  ANG2 (90) concentration (Median), PR group: 591.7 pg/mL
  ANG2 (90) concentration (Median), others (SD or PD): 799.3 pg/mL
  ANG2 (90) serum level post treatment (median): 688.6 pg/mL
  Ang-2 serum level post treatment (median): 1812 pg/mL
  Eotaxin serum level post treatment (median): 154.7 pg/mL
  FLT3 LG (89) serum level post treatment (median): 71.1 pg/mL
  G-CSF serum level post treatment (median): 67.1 pg/mL
  HGF (86) serum level post treatment (median): 1339.3 pg/mL
  IL-6 serum level post treatment (median): 17.3 pg/mL
  IL-7 serum level post treatment (median): 6.4 pg/mL
  IL-8 serum level post treatment (median): 31.7 pg/mL
  IL-17 serum level post treatment (median): 14.4 pg/mL
  IP-10 serum level post treatment (median): 474.3 pg/mL
  PGF (91) serum level post treatment (median): 35.9 pg/mL
  SDF-1a concentration (Median), PR group: 3294 pg/mL
  SDF-1a concentration (Median), others (SD or PD): 2915 pg/mL
  SDF-1a serum level post treatment (median): 3129.0 pg/mL
  TGFa serum level post treatment (median): 14.6 pg/mL
  Tie-2 serum level post treatment (median): 31685 pg/mL
  VEGF serum level post treatment (median): 741.4 pg/mL
  VEGFA (100) serum level post treatment (median): 202.1 pg/mL
  sVEGFR1 serum level post treatment (median): 300 pg/mL
  sVEGFR2 serum level post treatment (median): 18823.1 pg/mL
CYCLE 1 DAY 8/CYCLE 1 DAY 1
  FGF-2 ratio (Median), PR group: 1.189
  FGF-2 ratio (Median), others (SD or PD): 0.952
  GM-CSF ratio (Median), PR group: 1.037
  GM-CSF ratio (Median), others (SD or PD): 0.945
CYCLE 1 DAY 8 vs CYCLE 1 DAY 1
  ANG2 (90) fold change (median): 0.671
  Ang-2 fold change (median): 0.665
  Eotaxin fold change (median): 1.171
  FLT3 LG (89) fold change (median): 0.885
  G-CSF fold change (median): 1.25
  HGF (86) fold change (median): 1.096
  IL-6 fold change (median): 1.824
  IL-7 fold change (median): 1
  IL-8 fold change (median): 1.164
  IL-17 fold change (median): 1.025
  IP-10 fold change (median): 1.249
  PGF (91) fold change (median): 2.306
  SDF-1a fold change (median): 1.21
  TGFa fold change (median): 1.157
  Tie-2 fold change (median): 0.917
  VEGF fold change (median): 1.29
  VEGFA (100) fold change (median): 1.28
  sVEGFR1 fold change (median): 0.92
  sVEGFR2 fold change (median): 0.676
CYCLE 2 DAY 2/CYCLE 1 DAY 8
  FGF2 (79) ratio (Median), PR group: 1.132
  FGF2 (79) ratio (Median), others (SD or PD): 0.978
  GM-CSF ratio (Median), PR group: 1.051
  GM-CSF ratio (Median), others (SD or PD): 0.876
  HGF (86) ratio (Median), PR group: 0.789
  HGF (86) ratio (Median), others (SD or PD): 1.087
  Tie-2 ratio (Median), PR group: 0.791
  Tie-2 ratio (Median), others (SD or PD): 0.852
  VEGFA (100) ratio (Median), PR group: 0.899
  VEGFA (100) ratio (Median), others (SD or PD): 1.172
CYCLE 2 DAY 8
  ANG2 (90) serum level post treatment (median): 600.6 pg/mL
  Ang-2 serum level post treatment (median): 1533 pg/mL
  EGF (80) serum level post treatment (median): 875.8 pg/mL
  EGF serum level post treatment (median): 75.9 pg/mL
  Eotaxin serum level post treatment (median): 177 pg/mL
  G-CSF serum level post treatment (median): 61.3 pg/mL
  IL-6 concentration (Median), PR group: 8.2 pg/mL
  IL-6 concentration (Median), others (SD or PD): 33.9 pg/mL
  IL-6 serum level post treatment (median): 15 pg/mL
  IL-8 serum level post treatment (median): 31.4 pg/mL
  IP-10 serum level post treatment (median): 602.8 pg/mL
  MCP-1 serum level post treatment (median): 618.0 pg/mL
  PGF (91) serum level post treatment (median): 46.0 pg/mL
  SDF-1a serum level post treatment (median): 3529.5 pg/mL
  Tie-2 serum level post treatment (median): 26220 pg/mL
  VEGFA (100) serum level post treatment (median): 212.5 pg/mL
  sVEGFR1 serum level post treatment (median): 341.5 pg/mL
  sVEGFR2 serum level post treatment (median): 13352.1 pg/mL
  sVEGFR3 serum level post treatment (median): 4030.9 pg/mL
CYCLE 2 DAY 8/CYCLE 1 DAY 1
  Eotaxin ratio (Median), PR group: 1.541
  Eotaxin ratio (Median), others (SD or PD): 1.242
  IP-10 ratio (Median), PR group: 1.547
  IP-10 ratio (Median), others (SD or PD): 1.151
CYCLE 2 DAY 8 vs CYCLE 1 DAY 1
  ANG2 (90) fold change (median): 0.586
  Ang-2 fold change (median): 0.618
  EGF (80) fold change (median): 1.17
  EGF fold change (median): 0.808
  Eotaxin fold change (median): 1.363
  G-CSF fold change (median): 1.215
  IL-6 fold change (median): 1.299
  IL-8 fold change (median): 1.205
  IP-10 fold change (median): 1.382
  MCP-1 fold change (median): 1.086
  PGF (91) fold change (median): 3.05
  SDF-1a fold change (median): 1.345
  Tie-2 fold change (median): 0.766
  VEGFA (100) fold change (median): 1.426
  sVEGFR1 fold change (median): 0.805
  sVEGFR2 fold change (median): 0.499
  sVEGFR3 fold change (median): 0.843
